Measured values published in patent publication US20130210860A1, “PROPHYLACTIC AND/OR THERAPEUTIC AGENT AGAINST LYMPHEDEMA” (KOWA CO., LTD., priority 2010, published 2013).

Tests used:
[1] = test system: mouse model of abdominal wall lymphedema; experiment: Mouse model of abdominal wall lymphedema, thickness of the skin section (wild-type mouse); assay type: in vivo, C57BL/6J mouse; conditions: for lymphedema (thickness of the skin): C57BL/6J mice, combined results of Experiments 2 and 3, pitavastatin 1 mg/kg/day, atorvastatin 2.5 or 1 mg/kg/day, pravastatin 1 mg/kg/day oral, after seven days, FIG. 2
Protocol: (§1) A male C57BL/6J mouse and a male eNOS-deficient mouse having a genetic background of C57BL/6J, both of which are eight weeks old at the time of surgery, each receives an intraperitoneal injection of Nembutal at 60 mg/kg, and further receives a subcutaneous injection of 1% Evans blue for identification of lymph nodes and lymphatic vessels in the dorsum of the right foot, the back of the hand, and the buttocks in an amount of 0.05 mL at each site. The abdominal hair was removed and the abdominal skin is incised in an open-door fashion so as to identify the inguinal lymph nodes, axillary lymph nodes, and lymphatic vessels connecting these lymph nodes in the right abdominal wall. The lymphatic vessels are ligated at two to three sites near the axillary lymph nodes, followed by excision of the axillary lymph nodes. Subsequently, the skin is sutured, whereby the surgery is completed. On the seventh day after the surgery, the abdominal skin is once again incised in an open-door fashion to collect the abdominal wall tissues. The mice were orally administered with the statins dissolved in distilled water (250 μl) from three days before to seven days after the surgery once a day. […] Methanol-fixed paraffin-embedded tissue sections were stained with hematoxylin, and the thickness of the skin section prepared from the upper inguinal area, which is the lowermost part of a mouse, was measured. Anatomically, interstitial fluid tends to be accumulated in this area.

[2] = test system: mouse model of abdominal wall lymphedema; experiment: Mouse model of abdominal wall lymphedema, thickness of the skin section (eNOS-deficient mouse); assay type: in vivo, eNOS-deficient mouse having a genetic background of C57BL/6J; conditions: Experiment 1, 10 mg/kg/day oral, once a day from three days before to seven days after the surgery, FIG. 1
Protocol: as §1, with “Anatomically, interstitial fluid tends to be accumulated in this area.” left out

[3] = test system: mouse model of abdominal wall lymphedema; experiment: Visual examination by lymphangiography (Evans blue): leakage of lymph fluid and lymphatic flow in the lymphedema model; assay type: in vivo, C57BL/6J mouse; conditions: C57BL/6J mice; administration method of Experiment 3 (1 mg/kg/day oral); lymphangiography on the seventh and fourteenth days after the surgery; FIG. 3
Protocol: A male C57BL/6J mouse and a male eNOS-deficient mouse having a genetic background of C57BL/6J, both of which are eight weeks old at the time of surgery, each receives an intraperitoneal injection of Nembutal at 60 mg/kg, and further receives a subcutaneous injection of 1% Evans blue for identification of lymph nodes and lymphatic vessels in the dorsum of the right foot, the back of the hand, and the buttocks in an amount of 0.05 mL at each site. The abdominal hair was removed and the abdominal skin is incised in an open-door fashion so as to identify the inguinal lymph nodes, axillary lymph nodes, and lymphatic vessels connecting these lymph nodes in the right abdominal wall. The lymphatic vessels are ligated at two to three sites near the axillary lymph nodes, followed by excision of the axillary lymph nodes. Subsequently, the skin is sutured, whereby the surgery is completed. […]
On the seventh and fourteenth days after the surgery, 0.05 μl of 1% Evans blue was locally injected into the inguinal lymph nodes for lymphangiography, whereby leakage of lymph fluid and lymphatic flow were evaluated.
Each statin was administered by the administration method employed in Experiment 3) and the leakage of lymph fluid and lymphatic flow were evaluated by lymphangiography of the lymph node tissues.

SMILES	lymphedema (thickness of the skin) [1]	lymphedema (thickness of the skin section prepared from the upper inguinal area) [2]	leakage of lymph fluid [3]	lymphedema (thickness of the skin section prepared from the upper inguinal area) ([1]; wild-type mouse, Experiment 1, 10 mg/kg/day oral, once a day from three days before to seven days after the surgery, FIG. 1)
CC[C@H](C)C(=O)O[C@H]1C[C@H](O)C=C2C=C[C@H](C)[C@H](CC[C@@H](O)C[C@@H](O)CC(=O)O)[C@H]21 [pravastatin, (+)-(3R,5R)-3,5-dihydroxy-7-[(1S,2S,6S,8S,8aR)-6-hydroxy-2-methyl-8-[(S)-2-methylbutyryloxy]-1,2,6,7,8,8a-hexahydro-1-naphthyl]heptanoic acid]	markedly inhibit	–	–	–
O=C(O)C[C@H](O)C[C@H](O)/C=C/c1c(C2CC2)nc2ccccc2c1-c1ccc(F)cc1 [pitavastatin, (3R,5S,6E)-7-[2-cyclopropyl-4-(4-fluorophenyl)-3-quinolyl]-3,5-dihydroxy-6-heptenoic acid]	markedly inhibit	markedly inhibited	markedly inhibited	markedly inhibited
